Here are results for nine molecules from patent US11161837B2, “Benzofuran derivatives for the treatment of hepatitis C” (BRISTOL-MYERS SQUIBB COMPANY, priority 2016, dated 2021).

In series [1] the test system is HCV. As to conditions: combination therapy; cited from earlier work.
Series [2] concerns HCV. As to conditions: cited from earlier work.
Series [3] has as its target T1, NS5B proteins of HCV genotype 1b (Con1) (Hepatitis C virus genotype 1b, UniProt Q9WMX2).
T1 construct: Each untagged protein was expressed with an 18 amino acid C-terminal truncation to enhance the solubility; made in house; host or cells: E. coli BL21(DE3), pET21a
Briefly: HCV NS5B RdRp enzyme assay. The note with it: 1b enzyme. It counts as biochemical. A digest of the protocol:
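Untagged NS5B (C-terminal 18-aa truncation) in an on-bead scintillation-proximity format: poly A template (0.36 nM), biotin-dT12 primer (15 nM), 0.29 μM ³H-UTP, 7 nM enzyme, 20 mM Hepes pH 7.5, 2.5 mM MgCl2. Reactions ran 4–24 h at 30 °C (24 h runs with 24 h enzyme–inhibitor preincubation), stopped with EDTA. IC50 from ten concentrations, four-parameter logistic fit.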

Series [4] has as its system genotype 1b (Con-1) HCV replicon in Huh-7 cells. The series is described as follows: HCV replicon luciferase assay. The series is classed as cell-based. The note with it: 1b replicon, Huh-7, Renilla luciferase, 3 days incubation. The procedure, abridged: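 Huh-7 cells carrying Con-1 genotype 1b replicon with Renilla luciferase reporter seeded onto titrated compound in DMEM, 4% FBS, 0.5% DMSO, 3 days at 37 °C. Luciferase read with EnduRen substrate (7.5 μM final) after ≥1 h; EC50 by four-parameter logistic fit.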
Background: Replicon systems follow genome replication, usually without infectious particles.

T1 sequence (Q9WMX2 2420-2992): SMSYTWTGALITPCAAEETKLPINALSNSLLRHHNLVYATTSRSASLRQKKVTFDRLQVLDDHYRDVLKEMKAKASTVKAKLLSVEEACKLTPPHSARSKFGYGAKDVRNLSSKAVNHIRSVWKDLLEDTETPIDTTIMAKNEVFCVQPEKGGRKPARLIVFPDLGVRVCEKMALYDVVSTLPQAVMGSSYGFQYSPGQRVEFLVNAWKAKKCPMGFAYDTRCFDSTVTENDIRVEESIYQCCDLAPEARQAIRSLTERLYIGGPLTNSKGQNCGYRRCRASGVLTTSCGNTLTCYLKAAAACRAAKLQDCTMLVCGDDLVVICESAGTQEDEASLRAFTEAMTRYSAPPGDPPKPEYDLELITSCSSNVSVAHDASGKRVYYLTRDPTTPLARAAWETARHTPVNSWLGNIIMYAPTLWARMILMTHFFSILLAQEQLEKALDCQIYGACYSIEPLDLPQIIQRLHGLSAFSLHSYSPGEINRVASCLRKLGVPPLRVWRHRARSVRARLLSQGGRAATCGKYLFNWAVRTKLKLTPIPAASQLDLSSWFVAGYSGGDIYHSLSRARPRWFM

Consider alpha-interferon and ribavirin, for which the “sustained efficacy, share of patients” value with HCV [1] was 40%.
`CNC(=O)c1c(-c2ccc(F)cc2)oc2cc(N(CCO)S(C)(=O)=O)c(C3CC3)cc12` [HCV-796]: in the series with HCV [2] (extended dosing of the combination regimens), the hepatic toxicity result is given as “hepatic toxicity observed”. In addition, in the series on HCV [2] (patients, transient as single agent, more robust with interferon and ribavirin), the “HCV RNA levels in patients” value is given as “reduce HCV RNA levels”.
One may read the IC50 as the concentration that gives 50% inhibition. Low values mean inhibition by little substance, high ones a need for much substance. One may read the EC50 as the concentration needed to bring the measured effect to its halfway point. A high value points to a need for much substance. On to `CNC(=O)c1c(-c2ccc(F)cc2)oc2cc(CCC(F)(F)F)c(-c3ccc(OC)c(C(=O)NC4(c5ncccn5)CC(OC(F)F)C4)c3)cc12` (centres unmarked) [Example 43, 5-(3-((3-(Difluoromethoxy)-1-(pyrimidin-2-yl)cyclobutyl)carbamoyl)-4-methoxyphenyl)-2-(4-fluorophenyl)-N-methyl-6-(3,3,3-trifluoropropyl)benzofuran-3-carboxamide], for which inhibition in series [3] was half-maximal at 10 nM (IC50). In series [4] (Hepatitis C virus, Huh-7, 72 h), this molecule yielded a concentration for a half-maximal effect (EC50) of 5.6 nM.
`CNC(=O)c1c(-c2ccc(F)cc2)oc2ccc(-c3cc(C(=O)NC4(c5ncccn5)CC(OC)C4)cc(F)c3C)c(F)c12` (single isomer, unassigned) [Example 11a, 4-Fluoro-5-(3-fluoro-5-((3-methoxy-1-(pyrimidin-2-yl)cyclobutyl)carbamoyl)-2-methylphenyl)-2-(4-fluorophenyl)-N-methylbenzofuran-3-carboxamide]: the IC50 in series [3] amounted to 90 nM. This molecule returned a half-maximal effective concentration (EC50) in series [4] of 40 nM.
In turn, `CNC(=O)c1c(-c2ccc(F)cc2)oc2cc(CCC(F)(F)F)c(-c3ccc(OC)c(C(=O)NC4(c5ncccn5)CC(OC(F)(F)F)C4)c3)cc12` (single isomer, unassigned) [Example 47a, 2-(4-Fluorophenyl)-5-(4-methoxy-3-((1-(pyrimidin-2-yl)-3-(trifluoromethoxy)cyclobutyl)carbamoyl)phenyl)-N-methyl-6-(3,3,3-trifluoropropyl)benzofuran-3-carboxamide] returned an IC50 in series [3] of 20 nM. The molecule also yielded a concentration for a half-maximal effect (EC50) in series [4] (Hepatitis C virus, Huh-7, 72 h) of 10 nM.
Molecule `CNC(=O)c1c(-c2ccc(F)cc2)oc2ccc(-c3cc(C(=O)NC4(c5ncccn5)CC(O)C4)c(OC)cc3C)c(F)c12` (single isomer, unassigned) [Example 12a, 4-Fluoro-2-(4-fluorophenyl)-5-(5-((3-hydroxy-1-(pyrimidin-2-yl)cyclobutyl)carbamoyl)-4-methoxy-2-methylphenyl)-N-methylbenzofuran-3-carboxamide] displayed an IC50 in series [3] of 760 nM. The molecule further returned a concentration giving a half-maximal response (EC50) in series [4] of 430 nM.
In the case of `CNC(=O)c1c(-c2ccc(F)cc2)oc2ccc(-c3cc(C(=O)NC4(c5ncccn5)CC(F)(F)C4)ccc3C)c(F)c12` [Example 15, 5-(5-((3,3-Difluoro-1-(pyrimidin-2-yl)cyclobutyl)carbamoyl)-2-methylphenyl)-4-fluoro-2-(4-fluorophenyl)-N-methylbenzofuran-3-carboxamide], half-maximal inhibition in series [3] (IC50) required 30 nM. The molecule further displayed a concentration for a half-maximal effect (EC50) in series [4] (Hepatitis C virus, Huh-7, 72 h) of 30 nM.
In series [3], `CNC(=O)c1c(-c2ccc(F)cc2)oc2cc(CCC(F)(F)F)c(-c3cccc(C(=O)NC4(c5ncccn5)CC(OC(F)F)C4)c3)cc12` (single isomer, unassigned) [Example 29a] came in with an IC50 of 6.14 nM. Moreover, the EC50 in series [4] is 4.07 nM.
On the same counts, the results for `CCOc1cc2oc(-c3ccc(F)cc3)c(C(=O)NC)c2cc1-c1cccc(C(=O)NC2(c3ncccn3)CC(OC(F)F)C2)c1` (single isomer, unassigned) [Example 67b, 5-(3-((3-(Difluoromethoxy)-1-(pyrimidin-2-yl)cyclobutyl)carbamoyl)phenyl)-6-ethoxy-2-(4-fluorophenyl)-N-methylbenzofuran-3-carboxamide] are 2.11 nM and 6.8 nM.
